pIC50: −log10 of the molar value. Like-named read-outs stand apart in the source and are kept apart here.
Experiments:
[1] = system: NF-kB reporter in Jurkat cells; assay: NF-kB reporter assay in Jurkat cells stimulated with aCD3/aCD28/PMA; format: cell-based; conditions: read-out: NF-kB Reporter Assay IC50
Outline: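 Luminescence (One-Glo) from the NF-kB reporter yielded IC50 values. Stimulation lasted 4 h at 37° C with aCD3, aCD28 and PMA (final 5, 5 and 0.03 […]), after 1 h compound pre-exposure of 25,000 Jurkat cells per well in serum-free RPMI.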

Avi-tagged FL MALT-1 = Avi-tagged FL MALT-1 (Homo sapiens (Human), UniProt Q9UDY8); assay: MALT-1 Fluorogenic Peptide Cleavage Assay (MALT1 inhibition assay); format: biochemical; conditions: Ac-LRSR-AMC peptide substrate, 30 min pre-incubation, 90 min reaction at room temperature
Sequence of Avi-tagged FL MALT-1 (Q9UDY8 whole entry): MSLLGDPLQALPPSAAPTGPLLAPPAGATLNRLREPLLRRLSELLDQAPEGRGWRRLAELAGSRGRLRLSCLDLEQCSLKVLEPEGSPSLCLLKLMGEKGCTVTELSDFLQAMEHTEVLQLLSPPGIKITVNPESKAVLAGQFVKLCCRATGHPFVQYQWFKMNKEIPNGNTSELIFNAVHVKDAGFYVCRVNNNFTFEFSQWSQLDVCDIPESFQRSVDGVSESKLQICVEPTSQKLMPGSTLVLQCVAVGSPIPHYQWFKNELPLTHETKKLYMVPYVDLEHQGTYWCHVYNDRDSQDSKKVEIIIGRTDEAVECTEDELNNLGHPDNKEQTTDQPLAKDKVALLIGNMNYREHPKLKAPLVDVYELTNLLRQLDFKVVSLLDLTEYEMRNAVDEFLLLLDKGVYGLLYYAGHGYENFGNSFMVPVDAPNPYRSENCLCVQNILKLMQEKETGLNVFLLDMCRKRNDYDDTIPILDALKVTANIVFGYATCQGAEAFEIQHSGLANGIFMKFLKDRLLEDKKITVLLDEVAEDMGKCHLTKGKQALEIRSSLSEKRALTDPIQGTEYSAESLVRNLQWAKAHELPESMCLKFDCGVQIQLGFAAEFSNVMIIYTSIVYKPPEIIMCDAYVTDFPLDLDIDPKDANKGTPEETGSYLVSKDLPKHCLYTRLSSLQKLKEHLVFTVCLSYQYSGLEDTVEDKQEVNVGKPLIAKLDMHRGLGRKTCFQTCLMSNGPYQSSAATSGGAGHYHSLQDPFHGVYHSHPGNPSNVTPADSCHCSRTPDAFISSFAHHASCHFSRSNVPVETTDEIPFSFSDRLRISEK
Outline: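 Cleavage of Ac-LRSR-AMC, read as fluorescence at 342/441 nm after 90 min at room temperature, with substrate working stocks of 50 μM (Km) or 280 μM (10×Km). Enzyme, Avi-tagged full-length MALT-1 (40 nM stock), was first pre-incubated 30 min with compound in citrate/HEPES pH 6.89 buffer with TCEP, EDTA, CHAPS and 2% DMSO; IC50 fitted from normalised % inhibition.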

[2] = Homo sapiens, Jurkat cells, 1 hr compound pre-incubation, aCD3/aCD28/PMA stimulation 4 hr, One-Glo readout
[3] = Jurkat cells, 1 hr compound pre-incubation, aCD3/aCD28/PMA stimulation 4 hr, One-Glo readout

Row | SMILES | pIC50 [1, 2] | pIC50 (Avi-tagged FL MALT-1) | pIC50 [1, 3] | pIC50 ([1]; Homo sapiens, Jurkat)
1 | Cn1ncc2cccc(NS(=O)(=O)c3cnn(-c4cnn5c4COCC5)c3)c21 [Compound I-464, N-(1-methylindazol-7-yl)-1-{4H,6H,7H-pyrazolo[3,2-c][1,4]oxazin-3-yl}pyrazole-4-sulfonamide] | 6.00 to 6.40 | < 5.60 |  | 
2 | CC[C@@](C)(OC)c1ccnc(-n2cc(S(=O)(=O)Nc3cccc4cnn(C)c34)cn2)c1 (stereo in doubt) [Compound I-314, 1-(4-(2-methoxybutan-2-yl)pyridin-2-yl)-N-(1-methyl-1H-indazol-7-yl)-1H-pyrazole-4-sulfonamide] | > 6.40 | < 5.60 |  | 
3 | CCc1ccc2cnn(C)c2c1NS(=O)(=O)c1cnn(-c2cc(C(F)(F)F)ccn2)c1 [Compound I-14, N-(6-Ethyl-1-Methyl-1H-Indazol-7-yl)-1-(4-(Trifluoromethyl) Pyridin-2-yl)-1H-Pyrazole-4-Sulfonamide] | > 6.40 | ≥ 6.40 |  | 
4 | COc1ccc2cnn(C)c2c1NS(=O)(=O)c1cnn(-c2cc(C(C)(F)F)ccn2)c1 [Compound I-91, 1-(4-(1,1-Difluoroethyl)Pyridin-2-yl)-N-(6-Methoxy-1-Methyl-1H-Indazol-7-yl)-1H-Pyrazole-4-Sulfonamide] | > 6.40 | ≥ 6.40 |  | 
5 | COc1ccc2cnn(C)c2c1NS(=O)(=O)c1cnn(-c2cc(N3CC4CC4C3)ccn2)c1 (centres unmarked) [Compound I-417] | > 6.40 | < 5.60 |  | 
6 | COc1ccc2cnn(C)c2c1NS(=O)(=O)c1cnn(-c2cc(C3(OC)CCC3)ccn2)c1 [Compound I-132, N-(6-Methoxy-1-Methyl-1H-Indazol-7-yl)-1-(4-(1-Methoxycyclobutyl)Pyridin-2-yl)-1H-Pyrazole-4-Sulfonamide] |  | ≥ 6.40 |  | > 6.40
7 | O=S(=O)(c1cnn(-c2cc(C(F)(F)F)ccn2)c1)N1CCCn2ncc3cccc1c32 [Compound I-379, 1-((1-(4-(trifluoromethyl)pyridin-2-yl)-1H-pyrazol-4-yl)sulfonyl)-1,2,3,4-tetrahydro-[1,4]diazepino[3,2,1-hi]indazole] |  | < 5.60 |  | < 5.60
8 | Cc1cc(NS(=O)(=O)c2cnn(-c3ccnc(C(F)(F)F)c3)c2)c2c(cnn2C)c1 [Compound I-49, N-(1,5-Dimethyl-1H-Indazol-7-yl)-1-(2-(Trifluoromethyl) Pyridin-4-yl)-1H-Pyrazole-4-Sulfonamide] | < 5.60 | < 5.60 |  | 
9 | CCc1ccc2cnn(C)c2c1NS(=O)(=O)c1cnn(-c2cc(OC)ccn2)c1 [Compound I-44, N-(6-Ethyl-1-Methyl-1H-Indazol-7-yl)-1-(4-Methoxypyridin-2-yl)-1H-Pyrazole-4-Sulfonamide] | < 5.60 | < 5.60 |  | 
10 | Cn1ncc2ccc(Cl)c(NS(=O)(=O)c3cnn(-c4cc(C(F)(F)F)ccn4)c3)c21 [Compound I-85, N-(6-chloro-1-Methyl-1H-Indazol-7-yl)-1-(4-(Trifluoromethyl)Pyridin-2-yl)-1H-Pyrazole-4-Sulfonamide] | > 6.40 | ≥ 6.40 |  | 
11 | Cn1ncc2cccc(NS(=O)(=O)c3cnn(-c4cc(C5(O)CCC5)ccn4)c3)c21 [Compound I-107, 1-(4-(1-Hydroxycyclobutyl)Pyridin-2-yl)-N-(1-Methyl-1H-Indazol-7-yl)-1H-Pyrazole-4-Sulfonamide] |  | < 5.60 |  | > 6.40
12 | COc1ccc2cnn(C)c2c1NS(=O)(=O)c1cnn(-c2cncc(C(F)(F)F)c2)c1 [Compound I-23, N-(6-Methoxy-1-Methyl-1H-Indazol-7-yl)-1-(5-(Trifluoromethyl)Pyridin-3-yl)-1H-Pyrazole-4-Sulfonamide] | > 6.40 | ≥ 6.40 |  | 
13 | Cn1ncc2cccc(NS(=O)(=O)c3cnn(-c4cc(N5CC6CC(C6)C5)ccn4)c3)c21 [Compound I-389, 1-(4-(3-Azabicyclo[3.1.1]Heptan-3-yl)Pyridin-2-yl)-N-(1-Methyl-1H-Indazol-7-yl)-1H-Pyrazole-4-Sulfonamide] | > 6.40 | < 5.60 |  | 

Continued, in another order:

Row | pIC50 [1, 2] | pIC50 (Avi-tagged FL MALT-1) | pIC50 [1, 3] | SMILES | pIC50 ([1]; Homo sapiens, Jurkat)
14 | 5.60 to 6.00 | < 5.60 |  | COc1ccc2cnn(C)c2c1NS(=O)(=O)c1cnn(-c2cc(N3CC(C)(C(N)=O)C3)ccn2)c1 [Compound I-472] | 
15 | > 6.40 | < 5.60 |  | Cn1ncc2cccc(NS(=O)(=O)c3cnn(-c4cc(N5CCCC5=O)ccn4)c3)c21 [Compound I-284] | 
16 | > 6.40 | ≥ 6.40 |  | CCC(C)(OC)c1ccnc(-n2cc(S(=O)(=O)Nc3c(OC)ccc4cnn(C)c34)cn2)c1 (single isomer, unassigned) [Compound I-360, N-(6-methoxy-1-methyl-1H-indazol-7-yl)-1-(4-(2-methoxybutan-2-yl)pyridin-2-yl)-1H-pyrazole-4-sulfonamide] | 
17 | > 6.40 | < 5.60 |  | COC1(c2ccnc(-n3cc(S(=O)(=O)Nc4cccc5cnn(C)c45)cn3)c2)CC(F)C1 (centres unmarked) [Compound I-99, 1-(4-(3-fluoro-1-methoxycyclobutyl)pyridin-2-yl)-N-(1-methyl-1H-indazol-7-yl)-1H-pyrazole-4-sulfonamide] | 
18 | > 6.40 | ≥ 6.40 |  | [2H]C([2H])([2H])n1ncc2cnc(OC)c(NS(=O)(=O)c3cnn(-c4cc(C(C)(F)F)ccn4)c3)c21 [Compound I-411, 1-(4-(1,1-Difluoroethyl)Pyridin-2-yl)-N-(6-Methoxy-1-(Methyl-D3)-1H-Pyrazolo[4,3-C]Pyridin-7-yl)-1H-Pyrazole-4-Sulfonamide] | 
19 | > 6.40 | ≥ 6.40 |  | CCc1ccc2cnn(C)c2c1NS(=O)(=O)c1cnn(-c2cc(C)ccn2)c1 [Compound I-34, N-(6-Ethyl-1-Methyl-1H-Indazol-7-yl)-1-(4-Methylpyridin-2-yl)-1H-Pyrazole-4-Sulfonamide] | 
20 | > 6.40 | ≥ 6.40 |  | COc1ccc2[nH]nc(C)c2c1NS(=O)(=O)c1cnn(-c2ccnc(C(F)(F)F)c2)c1 [Compound I-79, N-(5-Methoxy-3-Methyl-1H-Indazol-4-yl)-1-(2-(Trifluoromethyl)Pyridin-4-yl)-1H-Pyrazole-4-Sulfonamide] | 
21 | > 6.40 | < 5.60 |  | CC[C@@](C)(O)c1ccnc(-n2cc(S(=O)(=O)Nc3cccc4cnn(C)c34)cn2)c1 [Compound I-295] | 
22 | > 6.40 | < 5.60 |  | C[C@H]1CN(c2ccnc(-n3cc(S(=O)(=O)Nc4cccc5cnn(C)c45)cn3)c2)C(=O)N1C [Compound I-346] | 
23 | > 6.40 | ≥ 6.40 |  | [2H]C([2H])([2H])n1ncc2cnc(OC)c(NS(=O)(=O)c3cnn(-c4cc(C(F)(F)F)ccn4)c3)c21 [Compound I-352, N-(6-methoxy-1-(methyl-d3)-1H-pyrazolo[4,3-c]pyridin-7-yl)-1-(4-(trifluoromethyl)pyridin-2-yl)-1H-pyrazole-4-sulfonamide] | 
24 |  | ≥ 6.40 | > 6.40 | COc1ccc2cnn(C)c2c1NS(=O)(=O)c1cnn(-c2cc(C3(OC)CC(C)C3)ccn2)c1 (single isomer, unassigned) [Compound I-365, N-(6-methoxy-1-methyl-1H-indazol-7-yl)-1-(4-(1-methoxy-3-methylcyclobutyl)pyridin-2-yl)-1H-pyrazole-4-sulfonamide] | 
25 |  | ≥ 6.40 | > 6.40 | COc1ncc2cnn(C)c2c1NS(=O)(=O)c1cnn(-c2cc(C(C)OC)ccn2)c1 (single isomer, unassigned) [Compound I-273, N-{6-methoxy-1-methylpyrazolo[4,3-c]pyridin-7-yl}-1-{4-[1-methoxyethyl]pyridin-2-yl}pyrazole-4-sulfonamide] | 
26 | > 6.40 | < 5.60 |  | C[C@H]1CCN(c2ccnc(-n3cc(S(=O)(=O)Nc4cccc5cnn(C)c45)cn3)c2)C1 [Compound I-400, N-(1-methylindazol-7-yl)-1-{4-[(3S)-3-methylpyrrolidin-1-yl]pyridin-2-yl} pyrazole-4-sulfonamide] | 
27 | < 5.60 | < 5.60 |  | COCCn1ncc2cccc(NS(=O)(=O)c3cnn(-c4cc(C5CC5)ccn4)c3)c21 [Compound I-102, 1-(4-cyclopropylpyridin-2-yl)-N-(1-(2-methoxyethyl)-1H-indazol-7-yl)-1H-pyrazole-4-sulfonamide] | 
28 | > 6.40 | < 5.60 |  | COc1ccc2cnn(C)c2c1NS(=O)(=O)c1cnn(-c2cc(N3CC(C)(C)C3)ccn2)c1 [Compound I-370, 1-[4-(3,3-dimethylazetidin-1-yl)pyridin-2-yl]-N-(6-methoxy-1-methylindazol-7-yl)pyrazole-4-sulfonamide] | 
29 | < 5.60 | < 5.60 |  | Cc1ccnc(-n2cc(S(=O)(=O)N(C)c3cccc4[nH]nc(C)c34)cn2)c1 [Compound I-66, N-Methyl-N-(3-Methyl-1H-Indazol-4-yl)-1-(4-Methylpyridin-2-yl)-1H-Pyrazole-4-Sulfonamide] | 
30 |  | ≥ 6.40 | 6.00 to 6.40 | COc1ncc2cnn(C)c2c1NS(=O)(=O)c1cnn(-c2cc(C(C)O)ccn2)c1 (single isomer, unassigned) [Compound I-293, 1-(4-(1-hydroxyethyl)pyridin-2-yl)-N-(6-methoxy-1-methyl-1H-pyrazolo[4,3-c]pyridin-7-yl)-1H-pyrazole-4-sulfonamide] | 
31 | 5.60 to 6.00 | ≥ 6.40 |  | Cc1ccc2[nH]nc(C)c2c1NS(=O)(=O)c1cnn(-c2ccnc(C(F)(F)F)c2)c1 [Compound I-74, N-(3,5-Dimethyl-1H-Indazol-4-yl)-1-(2-(Trifluoromethyl)Pyridin-4-yl)-1H-Pyrazole-4-Sulfonamide] | 

From patent US20240150321A1, “PYRAZOLYLSULFONAMIDE COMPOUNDS AND THEIR USE IN THERAPY” (HOTSPOT THERAPEUTICS, INC., priority 2022, published 2024)
